# Measurements published in paper PMC10746280, “Bacterial efflux pump modulators prevent bacterial growth in macrophages and under broth conditions that mimic the host environment” (mBio, 2023).
# How the values were obtained:
# [1] = test system: S. Typhimurium SL1344 (sifB::gfp) in RAW 264.7 macrophages; experiment: SAFIRE macrophage assay: intracellular bacterial load (GFP signal within macrophages); assay type: cell-based, Salmonella enterica serotype Typhimurium; details: for 5 uM Avg Antibacterial Score / 25 uM Avg Antibacterial Score: 'Toxic' given instead of a score; for IC50: Salmonella enterica, TYPHIMURIUM, RAW264.7, read-out: SAFIRE IC50
# Outline: (§1)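 Compound or DMSO added 2 h after gentamicin-protected infection (MOI ~30, sifB::gfp SL1344) of RAW 264.7 cells and left to 18 h. Fixed cells imaged; intracellular GFP area per macrophage gives bacterial load, while retained adherent MitoTracker Red-stained macrophages define host toxicity.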
# [2] = test system: RAW 264.7 macrophages; experiment: SAFIRE macrophage assay: host toxicity (adherent macrophage count, morphology); assay type: cell-based
# Outline: as §1
SMILES,5 uM Avg Antibacterial Score [1],25 uM Avg Antibacterial Score [1],5 uM Avg Cell # Score [2],25 uM Avg Cell # Score [2],IC50 [1] [nM],toxicity to infected macrophages in SAFIRE ([2]; 16 h after treatment)
OC(COc1cccc2[nH]ccc12)CN1CCC(Nc2nccc(C(F)(F)F)n2)CC1 (stereo not drawn) [CU116],90,6.41,99,94,–,–
OC(COc1ccc2cc[nH]c2c1)CN1CCC(Nc2nccc(C(F)(F)F)n2)CC1 (stereo not drawn) [CU117],3.65,Toxic,66,74,–,–
OC(COc1cnsn1)CN1CCC(Nc2nccc(C(F)(F)F)n2)CC1 (stereo not drawn) [CU118],102,80,89,124,–,–
OC(COc1cc(F)cc(Br)c1)CN1CCC(Nc2nccc(C(F)(F)F)n2)CC1 (stereo not drawn) [CU119],13,Toxic,72,50,–,–
OC(COc1ccc(Cl)cc1Br)CN1CCC(Nc2nccc(C(F)(F)F)n2)CC1 (stereo not drawn) [CU120],13,Toxic,74,46,–,–
OC(COc1ccc(Cl)cc1Cl)CN1CCC(NC2CC2)C1 (stereo not drawn) [CU121],73,11,89,89,–,–
CN(CC(O)COc1ccc(Cl)c(Cl)c1)C1CCOC1 (stereo not drawn) [CU122],102,81,81,74,–,–
CCN(CC(O)COc1ccc(Cl)c(Cl)c1)CC1CCOC1 (stereo not drawn) [CU123],98,28,85,84,–,–
OC(COc1ccc(Cl)c(Cl)c1)CN1CCC(F)(F)C1 (stereo not drawn) [CU124],102,85,80,71,–,–
OC(COc1ccc(Cl)c(Cl)c1)CN1CCC(F)C1 (stereo not drawn) [CU125],102,73,81,86,–,–
CO[C@H]1CCN(CC(O)COc2ccc(Cl)c(Cl)c2)C1 (stereo partly drawn) [CU126],99,47,81,86,–,–
CO[C@@H]1CCN(CC(O)COc2ccc(Cl)c(Cl)c2)C1 (stereo partly drawn) [CU127],97,46,92,85,–,–
COCC1CCCN1CC(O)COc1ccc(Cl)c(Cl)c1 (stereo not drawn) [CU128],98,32,85,85,–,–
OC(COc1ccc(Cl)c(Cl)c1)CN1CCC2(CCOCC2)C1 (stereo not drawn) [CU129],95,39,100,88,–,–
Cc1nnc(CN(C)CC(O)COc2ccc(Cl)c(Cl)c2)o1 (stereo not drawn) [CU130],98,85,100,73,–,–
Cc1noc(CN(C)CC(O)COc2ccc(Cl)c(Cl)c2)n1 (stereo not drawn) [CU131],101,86,88,80,–,–
OC(CNC1(c2ccccc2)CC1)COc1ccc(Cl)c(Cl)c1 (stereo not drawn) [CU132],102,Toxic,82,39,–,–
OC(CNCc1cccc2ccccc12)COc1ccc(Cl)c(Cl)c1 (stereo not drawn) [CU133],60,Toxic,84,92,–,–
OC(CNCc1ccc2c(c1)OC(F)(F)O2)COc1ccc(Cl)c(Cl)c1 (stereo not drawn) [CU134],61,Toxic,84,91,–,–
Cc1cc(CNCC(O)COc2ccc(Cl)c(Cl)c2)sc1C (stereo not drawn) [CU135],52,Toxic,75,103,–,–
OC(COc1ccc(Cl)c(Cl)c1)CN1Cc2ccccc2C1 (stereo not drawn) [CU136],102,60,83,63,–,–
O[C@H](COc1ccc(Cl)c(Cl)c1)CN1CCC(Nc2nccc(C(F)(F)F)n2)CC1 [CU137],5.37,Toxic,91,67,–,–
O[C@@H](COc1ccc(Cl)c(Cl)c1)CN1CCC(Nc2nccc(C(F)(F)F)n2)CC1 [CU138],7,Toxic,85,75,–,–

SMILES,5 uM Avg Antibacterial Score [1],25 uM Avg Antibacterial Score [1],5 uM Avg Cell # Score [2],25 uM Avg Cell # Score [2],IC50 [1] [nM],toxicity to infected macrophages in SAFIRE ([2]; 16 h after treatment)
OC(COc1ccccc1F)CN1CCC(Nc2nccc(C(F)(F)F)n2)C1 (stereo not drawn) [CU139],99,28,95,73,–,–
OC(COc1ccc(Cl)cc1)CN1CCC(NC2CC2)C1 (stereo not drawn) [CU140],87,73,122,130,–,–
OC(COc1ccccc1Cl)CN1CCC(NC2CC2)C1 (stereo not drawn) [CU141],81,79,116,137,–,–
CN(C)C1CCN(CC(O)COc2ccc(Cl)c(Cl)c2)C1 (stereo not drawn) [CU142],77,47,104,113,–,–
CN(CC(O)COc1ccc(Cl)c(Cl)c1)C1CCNC1 (stereo not drawn) [CU143],84,55,113,117,–,–
NC1CCCN(CC(O)COc2ccc(Cl)c(Cl)c2)C1 (stereo not drawn) [CU144],63,29,99,105,–,–
OC(COc1ccc(Cl)c(Cl)c1)CN1CCCNCC1 (stereo not drawn) [CU145],69,39,94,120,–,–
O=C1OC(COc2ccc(Cl)c(Cl)c2)CN1C1CCNC1 (stereo not drawn) [CU146],89,51,95,117,–,–
CSc1ccc(OCC(O)CN2CCC(Nc3nccc(C(F)(F)F)n3)CC2)cc1 (stereo not drawn) [CU147],72,Toxic,121,43,–,–
Cc1ccc(Cl)c(OCC(O)CN2CCC(Nc3nccc(C(F)(F)F)n3)CC2)c1 (stereo not drawn) [CU148],48,Toxic,123,39,–,–
OC(COc1ccc(Cl)c(Cl)c1)CN1CCC2(CCN2)C1 (stereo not drawn) [CU149],73,53,128,108,–,–
NC1CCN(CC(O)COc2ccccc2)C1 (stereo not drawn) [CU151],108,91,128,147,–,–
COc1ccc(OCC(O)CN2CCC(N)C2)cc1 (stereo not drawn) [CU152],103,91,116,142,–,–
NC1CCN(CC(O)COc2ccc(F)cc2)C1 (stereo not drawn) [CU153],106,85,103,131,–,–
N#Cc1ccc(OCC(O)CN2CCC(N)C2)cc1 (stereo not drawn) [CU154],112,111,99,123,–,–
OC(CNCc1csc(Cl)c1)COc1ccc(Cl)c(Cl)c1 (stereo not drawn) [CU155],107,Toxic,95,78,–,–
OC(COc1ccc(Cl)c(Cl)c1)CN1CCn2cnnc2C1 (stereo not drawn) [CU156],110,107,97,124,–,–
OC(COc1ccc(Cl)c(Cl)c1)CN1CCn2c([3F])nnc2C1 (stereo not drawn) [CU157],115,109,109,106,–,–
OC(COc1ccc(Cl)c(Cl)c1)CN1CCC(Oc2ncccn2)CC1 (stereo not drawn) [CU158],110,61,106,103,–,–
OC(CNC1Cc2ccccc2C1)COc1ccc(Cl)c(Cl)c1 (stereo not drawn) [CU159],102,Toxic,117,97,–,–
NC1CCN(C[C@H](O)COc2ccc(Cl)c(Cl)c2)C1 (stereo partly drawn) [CU160],51,35,137,129,2.6,–
NC1CCN(C[C@@H](O)COc2ccc(Cl)c(Cl)c2)C1 (stereo partly drawn) [CU161],55,33,138,113,81.4,non-toxic
